# Data: patent US9247738B2, “Method and composition for inhibition of microbial growth in aqueous food transport and process streams” (Ecolab USA Inc., priority 2000, dated 2016)
# Legend:
# Format in all cases: cell-based
# [1] = system: Candida parapsilosis; assay: Rate of fungus kill in use-solution; details: 80 ppm total peracid, 25° C.
# Description: (§1) Routine transfer to Sabouraud Dextrose agar slants maintained cultures of Candida parapsilosis (from blueberry processing water), Rhodotorula species (from celery processing water), Cryptococcus species (from potato processing water) and Zygosaccharomyces bailii (ATCC 60483). Growth was harvested by adding 5 mL of phosphate buffered water to the slant, mixing and then transferring the suspension into 90 mL of phosphate buffered water. The resulting suspension was used for testing.
# (§2) Two antimicrobial agents were used for testing. The first agent contained peroxyacetic acid. The second contained a peroxyacetic acid/peroxyoctanoic acid mixture. Both agents were diluted in sterile deionized water to achieve a total peracid concentration of 80 ppm. The composition of the use-solutions were as follows:
# (§3) The rate at which peroxyacetic acid and a peroxyacetic acid/peroxyoctanoic acid mixture killed fungi was measured by inoculating use-solutions of each antimicrobial agent with fungi and then quantifying survivors after various exposure times.
# (§4) Testing was performed in duplicate. 99 mL of each antimicrobial use-solution was transferred to a 250 mL Erlenmeyer flask and allowed to equilibrate to 25° C. The liquid in the flask was swirled vigorously in a rapid circular motion and 1 mL of a fungus suspension was added. After 30 seconds, 2, 5 or 10 minutes 1 mL quantities of the use-solution were transferred to 9 mL of an inactivating solution including 0.1% sodium thiosulfate. 1 mL quantities of the inactivating solution were pour-plated using Sabouraud Dextrose agar. Serial 100-fold dilutions of the inactivating solution were also plated. Agar plates were incubated for 72 hours at 26° C. before counting survivors. The log reduction of fungi due to the antimicrobial agent was determined by comparing reduction to a water control.
# [2] = system: Cryptococcus species; assay: Rate of fungus kill in use-solution; details: Cryptococcus sp., 80 ppm total peracid, 25° C.
# Description: as §1, §2, §3, §4
# [3] = system: Rhodotorula species; assay: Rate of fungus kill in use-solution; details: Rhodotorula sp., 80 ppm total peracid, 25° C.
# Description: as §1, §2, §3, §4
# [4] = system: Zygosaccharomyces bailii (ATCC 60483); assay: Rate of fungus kill in use-solution; details: Z. bailii, 80 ppm total peracid, 25° C.
# Description: as §1, §2, §3, §4
# [5] = system: Aspergillus species; assay: Rate of fungus kill in use-solution (mold conidia); details: Aspergillus sp., 80 ppm total peracid, 25° C.
# Description: (§5) Routine transfer to Sabouraud Dextrose agar slants maintained cultures of Aspergillus species (from onion processing water), Penicillium species (from celery processing water) and Cladosporium species (from potato processing water). Conidia suspensions of each mold were prepared by subculturing each mold to Sabouraud Dextrose agar plates and incubating until thick aerial mycelia with conidia were evident. Conidia were harvested by adding approximately 10 mL of phosphate buffered water to the plate, scraping the mycelia and collecting the suspension in a flask. The suspension was filtered through sterile gauze to remove large mycelia fragments from the conidia. The resulting suspension was used for testing.
# as §2, §3, §4
# [6] = system: Cladosporium species; assay: Rate of fungus kill in use-solution (mold conidia); details: Cladosporium sp., 80 ppm total peracid, 25° C.
# Description: as §5, §2, §3, §4
# [7] = system: Penicillium species; assay: Rate of fungus kill in use-solution (mold conidia); details: Penicillium sp., 80 ppm total peracid, 25° C.
# Description: as §5, §2, §3, §4
# [8] = system: total aerobic bacteria; assay: Antimicrobial efficacy in fresh-cut vegetable processing water, Aerobic Plate Count
# Description: (§6) Vegetable processing water testing was done using the same antimicrobial agents as in laboratory aqueous system testing. The varying concentrations of each agent are listed in the results section. Municipal tap water was the diluent.
# (§7) The reduction of microorganisms in vegetable processing water treated with peroxyacetic acid or a peroxyacetic acid/peroxyoctanoic acid mixture was determined. Testing was done in two separate recycled water systems. In both systems, cut vegetables fell into a water stream that carried them to a de-watering area where they were collected for further processing. The water that the vegetables traveled in was routed to a balance tank that fed back into the original water stream thus completing the process loop. One system was used to wash cut, raw celery or cabbage. The other system was used to transport cut, raw potatoes to a blancher.
# (§8) During processing of each vegetable, 10 water samples were collected in sterile plastic bags containing an inactivating agent (0.01% sodium thiosulfate). 1 mL quantities were plated on Petrifilm® (3M, Inc.) Aerobic Plate Count, Coliform Count and Yeast & Mold Count media. Validation of these media using this procedure was performed prior to initiating testing (data not presented). Serial 100-fold dilutions were also plated. Petrifilms were incubated at 35° C. for 24 hours (Coliform Count), 35° C. for 48 hours (Aerobic Plate Count), or at room temperature for 72 hours (Yeast & Mold Count). The number of microorganisms was counted following incubation.
# (§9) The same analysis was used to evaluate the significance of reduction on vegetable surfaces.
# [9] = system: coliform bacteria; assay: Antimicrobial efficacy in fresh-cut vegetable processing water, Coliform Count
# Description: as §6, §7, §8, §9
# [10] = system: yeast and mold; assay: Antimicrobial efficacy in fresh-cut vegetable processing water, Yeast & Mold Count
# Description: as §6, §7, §8, §9
# [11] = system: Aerobic Bacteria; assay: Antimicrobial efficacy on fresh-cut vegetables, aerobic bacteria; details: 30 second exposure to process water
# Description: as §6, §7
# (§10) Microorganism reduction on vegetable surfaces in the transport and process water was determined while water analyses were being conducted. Ten samples of each cut vegetable were collected just prior to falling into the process water stream and just after de-watering.
# (§11) Eleven grams of each sample were transferred to bag containing 99 mL of sterile phosphate buffered water. Contents of the bag were mixed in a Stomacher brand mixer for approximately 1 minute. Afterwards, 1 mL of the mixture was plated on Petrifilm brand Aerobic Plate Count, Coliform Count and Yeast & Mold Count media. 1 mL quantities of 100-fold serial dilutions were also plated. Petrifilms were incubated and enumerated as described above in this Example.
# as §9
# [12] = system: coliform bacteria; assay: Antimicrobial efficacy on fresh-cut vegetables, coliform bacteria; details: 30 second exposure to process water
# Description: as §6, §7, §10, §11, §9
# [13] = system: Yeast & Mold; assay: Antimicrobial efficacy on fresh-cut vegetables, yeast & mold; details: 30 second exposure to process water
# Description: as §6, §7, §10
# Eleven grams of each sample were transferred to bag containing 99 mL of sterile phosphate buffered water. Contents of the bag were mixed in a Stomacher brand mixer for approximately 1 minute. […] 1 mL quantities of 100-fold serial dilutions were also plated. […]
# [14] = system: Escherichia coli O157:H7; assay: Kill of pathogenic bacteria on tomato surfaces and in the wash solution
# Description: (§12) The following procedure was employed for determining whether a composition killed pathogenic bacteria (e.g. Escherichia coli O157:H7, Listeria monocytogenes, or Salmonella javiana) on the surface of a fruit or vegetable. Bacteria were applied to tomato surfaces and allowed a 1-2 hour attachment time. Contaminated tomatoes were submersed in a peroxyacetic/peroxyoctanoic acid mixture according to the present invention (at a level yielding 40 ppm peroxyacetic acid) or water for 1 minute without agitation. After 1 minute, tomatoes were transferred to a solution that neutralized the peroxy acids and peroxides and massaged for 3 minutes to remove attached bacteria. The number of attached bacteria that survived treatment was determined using standard agar plating technique. The number of bacteria that “fell off” the tomato into the water or peroxyacetic/peroxyoctanoic acid mixture according to the present invention, and survived, was also determined by neutralization and agar plating technique. A similar experiment was conducted employing a peroxyacetic acid antimicrobial composition.
# [15] = system: Salmonella javiana; assay: as above
# Description: as §12
# [16] = system: Listeria monocytogenes; assay: as above
# Description: The following procedure was employed for determining whether a composition killed pathogenic bacteria (e.g. Escherichia coli O157:H7, Listeria monocytogenes, or Salmonella javiana) on the surface of a fruit or vegetable. Bacteria were applied to tomato surfaces and allowed a 1-2 hour attachment time. […] After 1 minute, tomatoes were transferred to a solution that neutralized the peroxy acids and peroxides and massaged for 3 minutes to remove attached bacteria. The number of attached bacteria that survived treatment was determined using standard agar plating technique. The number of bacteria that “fell off” the tomato into the water or peroxyacetic/peroxyoctanoic acid mixture according to the present invention, and survived, was also determined by neutralization and agar plating technique. A similar experiment was conducted employing a peroxyacetic acid antimicrobial composition.
# [17] = Cabbage process water, average peracid from POAA agent 26 ppm, from POAA/POOA agent 29 ppm
# [18] = Celery process water, average peracid from POAA agent 38 ppm, from POAA/POOA agent 39 ppm
# [19] = Potatoes process water, average peracid from POAA agent 54 ppm, from POAA/POOA agent 32 ppm
# [20] = Cabbage, peracid POAA agent 26 ppm, POAA/POOA agent 29 ppm
# [21] = Celery, peracid POAA agent 38 ppm, POAA/POOA agent 39 ppm
# [22] = Potatoes, peracid POAA agent 54 ppm, POAA/POOA agent 32 ppm
smiles,measurement,setting,value
"CC(=O)OO [POAA, peroxyacetic acid]",Average log reduction of yeast,[1]; 2 Minutes,1.49 log
same,Average log reduction of yeast,[1]; 5 Minutes,3.42 log
same,Average log reduction of yeast,[1]; 30 Seconds,0.34 log
same,Average log reduction of yeast,[2]; 2 Minutes,>7.08 log
same,Average log reduction of yeast,[2]; 5 Minutes,>7.08 log
same,Average log reduction of yeast,[2]; 30 Seconds,>7.08 log
same,Average log reduction of yeast,[3]; 2 Minutes,>3.88 log
same,Average log reduction of yeast,[3]; 5 Minutes,>3.88 log
same,Average log reduction of yeast,[3]; 30 Seconds,>3.88 log
same,Average log reduction of yeast,[4]; 2 Minutes,0.18 log
same,Average log reduction of yeast,[4]; 5 Minutes,0.94 log
same,Average log reduction of yeast,[4]; 30 Seconds,0.16 log
same,Average log reduction of mold,[5]; 2 Minutes,0 log
same,Average log reduction of mold,[5]; 5 Minutes,0 log
same,Average log reduction of mold,[5]; 10 Minutes,0 log
same,Average log reduction of mold,[6]; 2 Minutes,1.86 log
same,Average log reduction of mold,[6]; 5 Minutes,4.18 log
same,Average log reduction of mold,[6]; 10 Minutes,>4.18 log
same,Average log reduction of mold,[7]; 2 Minutes,0 log
same,Average log reduction of mold,[7]; 5 Minutes,0.45 log
same,Average log reduction of mold,[7]; 10 Minutes,1.52 log
same,"Average number of microorganisms in process water, Aerobic Plate Count",[8]; [17],1.92 log CFU/mL
same,"Average number of microorganisms in process water, Aerobic Plate Count",[8]; [18],2.02 log CFU/mL
same,"Average number of microorganisms in process water, Aerobic Plate Count",[8]; [19],0.92 log CFU/mL
same,"Average number of microorganisms in process water, Coliform Count",[9]; [17],0 log CFU/mL
same,"Average number of microorganisms in process water, Coliform Count",[9]; [18],0 log CFU/mL
same,"Average number of microorganisms in process water, Coliform Count",[9]; [19],0 log CFU/mL
same,"Average number of microorganisms in process water, Yeast & Mold Count",[10]; [17],2.02 log CFU/mL
same,"Average number of microorganisms in process water, Yeast & Mold Count",[10]; [18],1.86 log CFU/mL
same,"Average number of microorganisms in process water, Yeast & Mold Count",[10]; [19],5.48 log CFU/mL
same,"Average log reduction on fresh-cut vegetables, Aerobic Bacteria Reduction",[11]; [20],0.84 log
same,"Average log reduction on fresh-cut vegetables, Aerobic Bacteria Reduction",[11]; [21],1.07 log
same,"Average log reduction on fresh-cut vegetables, Aerobic Bacteria Reduction",[11]; [22],1.54 log
same,"Average log reduction on fresh-cut vegetables, Coliform Bacteria Reduction",[12]; [20],>0.88 log
same,"Average log reduction on fresh-cut vegetables, Coliform Bacteria Reduction",[12]; [21],0.77 log
same,"Average log reduction on fresh-cut vegetables, Coliform Bacteria Reduction",[12]; [22],>1.58 log
same,"Average log reduction on fresh-cut vegetables, Yeast & Mold Reduction",[13]; [20],0.77 log
same,"Average log reduction on fresh-cut vegetables, Yeast & Mold Reduction",[13]; [21],0.68 log
same,reduction in the E. coli O157:H7 in tomato wash water,[14]; 20 ppm POAA,57%
same,reduction in the E. coli O157:H7 in tomato wash water,[14]; 40 ppm POAA,88%
same,reduction in the E. coli O157:H7 in tomato wash water,[14]; 60 ppm POAA,94%
same,reduction in amounts of S. javiana,[15]; 20 ppm POAA,no reduction
same,reduction in amounts of S. javiana,[15]; 40 ppm POAA,no reduction
same,reduction in amounts of S. javiana,[15]; 60 ppm POAA,91%
same,reduction of L. monocytogenes on tomatoes,[16]; 20 ppm POAA,84%
same,reduction of L. monocytogenes on tomatoes,[16]; 40 ppm POAA,95%
same,reduction of L. monocytogenes on tomatoes,[16]; 60 ppm POAA,98%
